Reference: patent US20250263459A1, “STABILIZED PACAP PEPTIDE” (SENJU PHARMACEUTICAL CO., LTD., priority 2019, published 2025)
Non-standard residues stand in square brackets, D forms with d. Residues, ends and D or L forms follow the SMILES beside them. ξ: configuration not given here. ξAla(tetrazol-5-yl) = NC(Cc1nnn[nH]1)C(=O)O

Key:
VPAC1 receptor = target: T1, VPAC1 receptor (Homo sapiens, UniProt P32241); assay: cAMP assay in CHO-K1 cells, VPAC1 receptor high-expressing cell line; format: cell-based; details: 30 minutes incubation
T1 construct: host or cells: CHO-K1
T1 sequence (P32241 31-457): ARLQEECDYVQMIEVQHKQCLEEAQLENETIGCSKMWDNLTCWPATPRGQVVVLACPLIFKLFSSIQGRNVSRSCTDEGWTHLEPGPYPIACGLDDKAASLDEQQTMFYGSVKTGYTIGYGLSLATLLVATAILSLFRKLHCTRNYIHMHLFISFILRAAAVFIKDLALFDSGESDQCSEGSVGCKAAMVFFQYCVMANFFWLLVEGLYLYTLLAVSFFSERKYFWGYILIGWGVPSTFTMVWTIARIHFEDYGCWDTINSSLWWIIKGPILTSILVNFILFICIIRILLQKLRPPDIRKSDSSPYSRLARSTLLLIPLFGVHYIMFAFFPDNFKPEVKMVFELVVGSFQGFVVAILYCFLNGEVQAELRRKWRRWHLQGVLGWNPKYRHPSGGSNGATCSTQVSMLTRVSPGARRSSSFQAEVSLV
Description: The cells were cultured for 18 to 24 hours at 37° C. in a 5% CO2 incubator, adhering the cells to the plate. […] A 5-fold dilution series was then prepared with the same Cell assay buffer and used in an assay. The cAMP assay was carried out using a Hit Hunter cAMP Assay for Biologics kit (product of DiscoveRx, Cat. No. 90-0075LM25), according to the included kit instructions. […] Next, the culture medium was removed from the CHO-K1 cell culture plate, washing was performed with PBS, and the peptide-cAMP antibody liquid mixtures were added to the cells and incubated for 30 minutes under a 5% CO2 atmosphere at 37° C. A working detection solution was then added and the culture plate was shielded from light with aluminum foil and incubated at 25° C. for 1 hour. After incubation, Solution A was added and the culture plate was shielded from light with aluminum foil and then incubated at 25° C. for 3 hours. […] The obtained value for the Relative Luminescence Unit (RLU) was analyzed with GraphPad Prism Ver 6.05 (product of Graph Pad) and the EC50 value was calculated for each peptide.

[1] = Stability test 1: survival rate of peptide in phosphate buffer (pH 7.0) after storage, HPLC; format: physicochemical; details: 100 μM peptide, 0.1% phosphate buffer pH 7.0, 40° C., 4 weeks (Table 4)
Procedure, shortened: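 Peptide solutions at 100 μM in phosphate buffer were stored at 40° C. for 1 week to 2 months depending on peptide. Remaining peptide was measured by reverse-phase HPLC peak area against an unstored standard, with survival rate also corrected for water loss through the container from weighing before and after storage.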

[2] = as above; format: physicochemical; details: 100 μM peptide, 0.1% phosphate buffer pH 7.0, head prints 80° C., 8 weeks (Table 4)
PAC1 receptor (PAC1R) = target: T2, PAC1 receptor (PAC1R) (Homo sapiens, UniProt P41586); details: background statement; cited from earlier work
T2 sequence (P41586 21-468): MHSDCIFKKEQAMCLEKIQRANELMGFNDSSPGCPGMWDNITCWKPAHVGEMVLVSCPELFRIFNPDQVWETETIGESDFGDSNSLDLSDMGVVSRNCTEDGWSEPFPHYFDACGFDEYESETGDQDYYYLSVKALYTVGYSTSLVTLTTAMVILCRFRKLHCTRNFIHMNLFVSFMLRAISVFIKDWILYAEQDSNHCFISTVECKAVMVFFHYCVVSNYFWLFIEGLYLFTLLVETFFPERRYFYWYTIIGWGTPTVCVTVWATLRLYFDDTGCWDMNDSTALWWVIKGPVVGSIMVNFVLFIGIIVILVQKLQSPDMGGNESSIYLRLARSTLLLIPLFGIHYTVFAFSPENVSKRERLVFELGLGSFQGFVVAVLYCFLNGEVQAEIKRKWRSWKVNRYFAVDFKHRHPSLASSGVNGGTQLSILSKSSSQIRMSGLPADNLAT

Row | EC50 (VPAC1 receptor) | Compound | survival rate after correction for water, 40° C. 4 week [1] | survival rate after correction for water, 80° C. 8 week [2] | affinity of PAC1R for PACAP relative to affinity of PAC1R for VIP (PAC1 receptor (PAC1R))
1 | 0.111 nM | CC[C@H](C)[C@H](NC(=O)CNC(=O)C(Cc1nnn[nH]1)NC(=O)[C@H](CO)NC(=O)[C@@H](N)Cc1c[nH]cn1)C(=O)N[C@@H](Cc1ccccc1)C(=O)N[C@@H](C)C(=O)NC(Cc1nnn[nH]1)C(=O)N[C@@H](C)C(=O)N[C@@H](Cc1ccc(O)cc1)C(=O)N[C@@H](C)C(=O)N[C@@H](CCCNC(=N)N)C(=O)N[C@@H](Cc1ccc(O)cc1)C(=O)N[C@@H](CCCNC(=N)N)C(=O)N[C@@H](CCCCN)C(=O)N[C@@H](CCC(N)=O)C(=O)N[C@@H](CCSC)C(=O)N[C@@H](C)C(=O)N[C@H](C(=O)N[C@@H](CCCCN)C(=O)N[C@@H](CCCCN)C(=O)N[C@@H](Cc1ccc(O)cc1)C(=O)N[C@@H](CC(C)C)C(=O)N[C@@H](C)C(=O)N[C@@H](C)C(=O)N[C@H](C(=O)N[C@@H](CC(C)C)C(N)=O)C(C)C)C(C)C (stereo partly shown) [Peptide 3, HSTzGI FATzAY ARYRK QMAVK KYLAA VL] (H-HS[ξAla(tetrazol-5-yl)]GIFA[ξAla(tetrazol-5-yl)]AYARYRKQMAVKKYLAAVL-NH2) | 92.9% | 85.4% | 
2 |  | Pituitary adenylate cyclase-activating polypeptide [PACAP] |  |  | more than 1000 times
